Tests used:
[1] = test system: cholesterol-fed rat; assay: Subacute studies in cholesterol-fed rats, IP once-a-day for seven days: serum cholesterol, heart weight, heart GPDH
Procedure: The cholesterol-fed rat is an animal model of hypercholesterolemia generated by feeding the animals a diet with high cholesterol content.
Serum cholesterol values were assessed and the animals randomized into groups for treatment.

[2] = test system: ZDF rats; assay: Liver triglycerides and liver histology in ZDF rats, oral 28 days; format: in vivo, rat
Procedure: In other experiments, Compound 7 was orally administered to ZDF rats for 28 days. Liver triglycerides were analyzed as described above. Total liver triglycerides were reduced in the treated animals 42% in the 2.5 mg/kg/d group. […] The hepatic steatosis is a well known and described phenomenon for the ZDF rat, and therefore not attributable to vehicle treatment.

[3] = Liver distribution following oral administration (liver levels of Compound 7 by LC-MS); format: in vivo, rat; details: levels of Compound 7 in liver, 10 mg/kg@1.5 h, normal rats
Procedure: Liver levels of Compound 7 were assessed in normal rats following oral administration of the HepDirect™ or other prodrugs. The levels were used to estimate potential efficacy. Liver levels were assessed by LC-MS using the 363.3/63.0 peak area to estimate levels of Compound 7 generated by orally administered prodrugs.

[4] = test system: isolated rat hepatocytes; assay: Activation of prodrug in isolated rat hepatocytes; format: in vitro ADME; details: active species in hepatocytes, 100 μM
Procedure: Method: Hepatocytes are prepared from fed Sprague-Dawley rats (250-300 g) according to the procedure of Berry and Friend (Berry, M. N., Friend, D. S. J. Cell Biol. 43, 506-520 (1969)) as modified by Groen (Groen, A. K. et al., Eur J. Biochem 122, 87-93 (1982)). Hepatocytes (60 mg wet weight/mL) are incubated in 1 mL Krebs-bicarbonate buffer containing 10 mM glucose, and 1 mg/mL BSA. Incubations are carried out in a 95% oxygen, 5% carbon dioxide atmosphere in closed, 50-mL Falcon tubes submerged in a rapidly shaking water bath (37° C.). Prodrugs are dissolved in DMSO to yield 10 mM stock solutions, and then diluted into the cell suspension to yield a final concentration of 100 μM. At appropriate time points over the course of 1 h, aliquots of the cell suspension are removed and spun through a silicon/mineral oil layer into 10% perchloric acid. The cell extracts in the acid layers are neutralized, and the intracellular prodrug metabolite content analyzed by reverse phase HPLC or LC-MS/MS (Example F). The AUC of the active species in the hepatocytes is calculated from the concentration-time profile of parent compound.

[5] = test system: Hypercholesterolemic rats; assay: Cholesterol lowering in hypercholesterolemic (cholesterol-fed) rats; format: in vivo, rat
Procedure: Plasma cholesterol values were assessed prior to and following treatment and the effects of compound were expressed as a percentage change from the pre-dose cholesterol levels. […] Compounds were routinely tested for oral efficacy at a dose of 0.5 mg/kg/d. Hypercholesterolemic rats were treated with vehicle, Compound 13-1-cis (a HepDirect version of Compound 7), Compound 19-1 (a diethyl ester of Compound 19-2), Compound 13-9 (a HepDirect version of Compound 19-2), Compound 12-5 (a bisPom version of compound 19-2), or Compound 15-5 (a bisamidate version of Compound 19-2) at 0.5 mg/kg/d orally. Compound 13-1-cis has been extensively characterized and was used as the positive control for the assay.

[6] = test system: ZDF rats; assay: Circulating TSH in ZDF rats treated 28 days; format: in vivo, rat; details: 50 mg/kg/d for 28 days
Source text: Another concern with synthetic thyromimetics is the suppression of the endogenous thyroid axis. Thyroid homeostasis is maintained by the action of thyroid releasing hormone (TRH) and thyroid stimulating hormone (TSH). […] Although this particular side effect has been noted, it has typically been treated with less concern than the cardiac safety issues. […] Therefore previous investigators have measured TSH levels when testing synthetic thyromimetics and have used a 30% decrease of TSH as the denominator in their therapeutic index calculations. […] Therefore, both compounds suppress TSH as doses lower than that required to decrease circulating cholesterol. […] However, 0.2 mg/kg/d of Compound 18 in 28 day treated ZDF rats, decreased TSH levels greater than 90%.

[7] = test system: ZDF rats; details: rat, in vivo, 28 days
Procedure: Compound 18 was administered at doses up to 5 mg/kg/d. Compound cis-13-1 was administered at doses up to 50 mg/kg/d. We reasoned that the ZDF rat, as a metabolically challenged animal model, would be more sensitive to the potential adverse cardiac effects of thyromimetics than a normal, cholesterol-fed rat. At sacrifice, heart rate, and the first derivative of left ventricular pressure (LV dP/dt) were measured with a Millar catheter inserted into the left ventricle.

[8] = test system: Sprague Dawley (SD) rat; assay: Cardiovascular activity of T3 mimetics in the Sprague Dawley rat, oral 7 days; format: in vivo; details: SD rats, p.o. 7 days, Compound cis-13-1 1-50 mg/kg/day
Source text: Method: […] The control group (n=6) was given vehicle only. […] On the 7th day after the start of dosing, animals were anesthetized with Isoflurane and the left ventricle cannulated with a high fidelity catheter tip transducer via the right carotid artery. Left ventricular pressure, its first derivative (LVdP/dt), lead I ECG, and heart rate (HR) triggered off the ECG waveform, were digitally recorded. LV dP/dt is a well accepted measure of ionotropic state. Systolic and diastolic aortic pressures were measured by retracting the catheter into the proximal aorta.

[9] = test system: cholesterol fed rats; assay: Subacute studies in cholesterol fed rats, PO once a day for seven days: cholesterol reduction, heart weight; format: in vivo, rat; details: 0.6-50 mg/kg/day PO once a day for seven days
Procedure: Methods: […] Compound 13-1-cis and Compound 18 were administered PO once a day for seven days. Serum TSH is measured using an enzyme immunoassay (EIA) kit designed for rat TSH (Amersham Pharmacia Biotech, Arlington Heights, Ill.). Expression levels of liver genes (e.g., the LDL-receptor, apoB, cpt-1, spot14 and apoA1) and heart genes ([…]^2, Kv1.5, MHCα, MHCβ, Alpha1c) are quantified by Northern blot analysis or by RT-PCR. […] Oligonucleotides specific for the complementary gene sequences are used to make ^32P-labeled probes (Multiprime DNA labeling systems, Amersham Pharmacia Biotech). Following hybridization of the probes to the nylon membranes, radioactivity is assessed on a blue film (Eastman Kodak Co,), and the resulting image quantified using the appropriate software. RT-PCR is performed using an iCycler instrument (Biorad) using appropriate primers by means of standard methodology [[…] et al. (2000) Life Sciences 66: 1683-94]. […] The activities of PEPCK and glucose 6-phosphatase in liver are measured by means of direct enzymatic assays of homogenized liver tissue as described by Andrikopoulos S et al. (1993) Diabetes 42: 1731-1736. Alternatively, expression levels of the corresponding genes are determined by Northern blot analysis or RT-PCR as described above.

[10] = Compound 18 1 mg/kg, vs control
[11] = Compound 18 1 mg/kg, vs vehicle

Question: Which serum cholesterol ([1]; 1-100 mg/kd/day, IP once-a-day for seven days) does the source give for `Cc1cc(OCP(=O)(O)O)cc(C)c1Cc1ccc(O)c(C(C)C)c1` [Compound 7, [3,5-dimethyl-4-(4′-hydroxy-3′-iso-propylbenzyl)phenoxy]methylphosphonic Acid] here?
Answer: Its serum cholesterol is “significantly decreased serum cholesterol”.

Question: And the “therapeutic window (separation between cholesterol lowering and cardiac toxicity)” value ([1]; cholesterol-fed rats)?
Answer: The value was 10- to 100 fold.

Question: And the “microvesicular steatosis (H&E liver histology)” value [2]?
Answer: Its value is “dose dependent reduction in the microvesicular steatosis”.

Question: And the “Liver Levels” value [3]?
Answer: The value was “Not Detected”.

Question: And the “AUC (0-2 h)” value [4]?
Answer: The value was 1371 nmol·h/g.

Question: What about the “efficacy in lowering cholesterol” value ([5]; another experiment, dose and route not given) of the same compound?
Answer: Its value is “efficacous”.

Question: What about the TSH [6] of the same compound?
Answer: Its TSH is “no statistically significant difference from vehicle”.

Question: Which “TI Improvement, ED15 HR” value [7] does the source give for `Cc1cc(OC[P@@]2(=O)OCC[C@@H](c3cccc(Cl)c3)O2)cc(C)c1Cc1ccc(O)c(C(C)C)c1` [Compound 13-1-cis, Cis (S)-2-[(3,5-Dimethyl-4-(4′-hydroxy-3′-iso-propylbenzyl)phenoxy)methyl]-4-(3-Chlorophenyl)-2-oxo-2λ^5-[1,3,2]-dioxaphosphinane] here?
Answer: Its value is over 39.

Question: What about the Heart weight [8, 10] of the same compound?
Answer: Its Heart weight is “no significant changes”.

Question: And the “heart weight normalized to body weight” value [8, 10]?
Answer: The value was “no significant changes”.

Question: And the HR [8, 11]?
Answer: The HR was “not significantly different”.

Question: What about the “LV dP/dt” value [8, 11] of the same compound?
Answer: Its value is “not significantly different”.

Question: What about the systolic aortic pressure [8, 11] of the same compound?
Answer: The systolic aortic pressure was “not significantly different”.

Question: What about the diastolic aortic pressure ([8]; vs vehicle) of the same compound?
Answer: Its diastolic aortic pressure is “not significantly different”.

Question: And the serum cholesterol [9]?
Answer: The serum cholesterol was “significantly decreased serum cholesterol”.

Question: What about the cholesterol lowering ([5]; hypercholesterolemic rats, 0.5 mg/kg/d orally) of the same compound?
Answer: The cholesterol lowering was “significant lowering of cholesterol”.
